Patent US20160346255A1, “METHODS, AGENTS AND COMPOSITIONS FOR TREATMENT OF INFLAMMATORY CONDITIONS” (Betanien Hospital, priority 2014, published 2016)
Non-standard residues stand in square brackets, D forms with d. Residues, ends and D or L forms follow the SMILES beside them. *: point of attachment. dPhe(4-NHCONH2) = NC(=O)Nc1ccc(C[C@@H](N)C(=O)O)cc1; Dihydroorotyl(S) = O=C1C[C@@H](C(=O)*)NC(=O)N1; dPhe(4-Cl) = N[C@H](Cc1ccc(Cl)cc1)C(=O)O; Phe(4-NH2) = Nc1ccc(C[C@H](N)C(=O)O)cc1; d2Nal = N[C@H](Cc1ccc2ccccc2c1)C(=O)O; Lys(iPr) = CC(C)NCCCC[C@H](N)C(=O)O; d3Pal = N[C@H](Cc1cccnc1)C(=O)O

Columns and labels:
Assay type in all cases: in vivo, human
[1] = test system: Patients with Rheumatoid Arthritis; experiment: Rheumatoid arthritis patients treated with degarelix: clinical variables
Description: Examples of Treating Patients with Rheumatoid Arthritis with a GnRH Antagonist [table] […] Examples of Patients with Continued RA Improvement Over Several Weeks Despite Stably Low Levels of LH

Patient with Lupus = experiment: Lupus patient treated with degarelix (and earlier therapies)
Description: Example of Treating a Patient with Lupus with a GnRH Antagonist
Due to their painful condition, they have been followed up by a pain clinic. They were offered a tricyclic antidepressant, amitriptyline 25 mg in March 2014 for their painful condition.
Therefore, we decided to offer […] degarelix. GnRH antagonists have shown anti-inflammatory effects and therefore we considered that degarelix, a depot GnRH antagonist, may have a therapeutic effect in lupus. 09.15.14, […] received […] loading dose of degarelix, 240 mg s.c.
They received their second dose of degarelix in October 2014, 80 mg s.c. They continue on 80 mg s.c. every two weeks.

[2] = test system: patients with risk factors for cardiovascular disease; experiment: Cardiovascular disease risk factors in patients taking degarelix; conditions: for Blood pressure: baseline 151/90; for Fasting glucose (4.0-6.0): 8.9 in April 2014; for HDL (1.0-2.7 mmol/L): Patient 7, baseline 0.68
Description: In our patient group who were offered degarelix, some patients had risk factors for cardiovascular disease, metabolic syndrome, lipidemia or hypoalphalipoproteinemia (low HDL). None of these patients had recently started medications prior to the GnRH antagonist that could explain the changes in blood pressure, HbA1c, fasting glucose or lipids. See Example 1 for patient information.
Patient 1 with metabolic syndrome fulfilling 3 of 5 metabolic risk factors (large waistline >35 inches, high blood pressure and high fasting glucose). […] High HbA1c, contributes to CVD (normal reference range 4.3-6.1%) At baseline 6.4%, high. By 2 weeks HbA1c had normalized to 6.1%. This continues to be normal, and at 8 months is 5.7%. Their fasting glucose was 6.6 mmol/L in September 2014, by October 2014 this was reduced to 6.3 mmol/L. • 2. High blood pressure, contributes to CVD at baseline 151/90 (measured at several times prior to baseline with repeatedly high blood pressure). Blood pressure by 6 months 120/71, and this continues to be normal. At their last check up at 8 months, their blood pressure was 118/78. • 3. No other abnormalities at baseline for assessment
Patient 4 • High HbA1c, contributes to CVD (normal reference range 4.3-6.1%). At baseline the HbA1c was 6.9%, high. By 1 month the HbA1c had reduced to 6.6, by 2 months 6.4, and by 4 months 6.2, and by 12 months it was normalized to 5.9. Their hospital records from a nearby hospital stated that their fasting glucose was high at 8.5 mmol/L (reference range 4.0-6.0) in December 2013, and by April 2014 this was higher at 8.9. They asked the patient's family doctor to initiate treatment due to the development of diabetes type II. Their fasting glucose had reduced to 6.6 mmol/L by 3 months after starting degarelix, and by 4 months has now normalised to 6.0 mmol/L. No other abnormalities baseline for assessment
Patient 7 • 1. Low HDL, contributes to CVD (normal reference range 1.0-2.7 mmol/L). Mora et al. investigated the link between cholesterol and cardiovascular events in women and found baseline HDL level was consistently and inversely associated with incident coronary and CVD events. A low HDL cholesterol level is thought to accelerate the development of atherosclerosis because of impaired reverse cholesterol transport and possibly because of the absence of other protective effects of HDL, such as decreased oxidation of other lipoproteins. • They had low HDL at baseline 0.68 mmol/L in September 2014. They received their loading dose of degarelix 240 mg s.c. in September 2014. By 1 week, their HDL level had increased to 0.73, and by 2 weeks it continued to increase towards normal at 0.75. By 3 weeks it had normalized to 1.13 mmol/L and at 4 weeks is normal at 1.19 mmol/L. • 2. No other abnormalities at baseline for assessment

[3] = Patient 2, 15 weeks, baseline 17
[4] = Patient 2, 15 weeks, baseline 90

## CC(=O)N[C@H](Cc1ccc2ccccc2c1)C(=O)N[C@H](Cc1ccc(Cl)cc1)C(=O)N[C@H](Cc1cccnc1)C(=O)N[C@@H](CO)C(=O)N[C@@H](Cc1ccc(NC(=O)[C@@H]2CC(=O)NC(=O)N2)cc1)C(=O)N[C@H](Cc1ccc(NC(N)=O)cc1)C(=O)N[C@@H](CC(C)C)C(=O)N[C@@H](CCCCNC(C)C)C(=O)N1CCC[C@H]1C(=O)N[C@H](C)C(N)=O [degarelix] (Ac-[d2Nal][dPhe(4-Cl)][d3Pal]S[Phe(4-NH2)](Dihydroorotyl(S))[dPhe(4-NHCONH2)]L[Lys(iPr)]P[dA]-NH2)
[1]; Patient 1, 28 weeks, baseline 1.25
  Function score (Good <1), final: 1.25, 0
[1]; Patient 1, 28 weeks, baseline 2.5
  Morning stiffness, final: 2.5, 0 hrs
[1]; Patient 1, 28 weeks, baseline 6
  Swollen joint count assessed with ultrasound, final: 6, 0
[1]; Patient 1, 28 weeks, baseline 9
  Tender joint, final: 9, 0
[1]; Patient 1, 28 weeks, baseline 81
  Patient own assessment (0-100), final: 81, 0
[1]; Patient 1, 28 weeks, baseline 85
  Physician assessment (0-100), final: 85, 7
[1]; Patient 1, treatment duration 28 weeks
  ACR % Response: 90%
[1]; Patient 2, 15 weeks, baseline 2.0
  Function score (Good <1), final: 2.0, 0.25
[1]; Patient 2, 15 weeks, baseline 9
  Morning stiffness, final: 9, 1 hrs
[1]; [3]
  Swollen joint count assessed with ultrasound, final: 17, 2
  Tender joint, final: 17, 3
[1]; [4]
  Patient own assessment (0-100), final: 90, 35
  Physician assessment (0-100), final: 90, 40
[1]; Patient 2, treatment duration 15 weeks
  ACR % Response: 60%
[1]; Patient 3, 4 wks
  ACR % Response: 30%
[1]; Patient 3, 8 wks
  ACR % Response: 40%
[1]; Patient 3, 12 weeks, baseline 1.75
  Function score (Good <1), final: 1.75, 0.63
[1]; Patient 3, 12 weeks, baseline 7
  Morning stiffness, final: 7, ½
[1]; Patient 3, 12 weeks, baseline 23
  Swollen joint count assessed with ultrasound, final: 23, 4
[1]; Patient 3, 12 weeks, baseline 26
  Tender joint, final: 26, 11
[1]; Patient 3, 12 weeks, baseline 50
  Patient own assessment (0-100), final: 50, 30
[1]; Patient 3, 12 weeks, baseline 90
  Physician assessment (0-100), final: 90, 30
[1]; Patient 3, 12 wks
  ACR % Response: 50%
[1]; Patient 3, treatment duration 12 weeks
  ACR % Response: 50%
[1]; Patient 4, 3½ wks
  ACR % Response: 20%
[1]; Patient 4, 9 weeks, baseline 0.88
  Function score (Good <1), final: 0.88, 0.38
[1]; Patient 4, 9 weeks, baseline 7
  Morning stiffness, final: 7, 3 hrs
[1]; Patient 4, 9 weeks, baseline 24
  Swollen joint count assessed with ultrasound, final: 24, 3
[1]; Patient 4, 9 weeks, baseline 28
  Tender joint, final: 28, 11
[1]; Patient 4, 9 weeks, baseline 80
  Physician assessment (0-100), final: 80, 40
[1]; Patient 4, 9 weeks, baseline 90
  Patient own assessment (0-100), final: 90, 50
[1]; Patient 4, 9 wks
  ACR % Response: 50%
[1]; Patient 4, treatment duration 9 weeks
  ACR % Response: 50%
[1]; Patient 5, 7 weeks, baseline 1.29
  Function score (Good <1), final: 1.29, 0.88
[1]; Patient 5, 7 weeks, baseline 2.5
  Morning stiffness, final: 2.5, ¾
[1]; Patient 5, 7 weeks, baseline 10
  Swollen joint count assessed with ultrasound, final: 10, 2
[1]; Patient 5, 7 weeks, baseline 12
  Tender joint, final: 12, 0
[1]; Patient 5, 7 weeks, baseline 70
  Physician assessment (0-100), final: 70, 20
[1]; Patient 5, 7 weeks, baseline 88, footnote: muscular pain in arms
  Patient own assessment (0-100), final: 88, 88^3
[1]; Patient 5, after treatment, power Doppler present before (FIG. 2)
  Power Doppler (inflammatory activity) on ultrasound of shoulder and MCP 4 joints: no power Doppler
[1]; Patient 5, treatment duration 7 weeks
  ACR % Response: 30%
[1]; Patient 6, 36 weeks, baseline 1.5
  Function score (Good <1), final: 1.5, 0.625
[1]; Patient 6, 36 weeks, baseline 2
  Morning stiffness, final: 2, 0 hrs
[1]; Patient 6, 36 weeks, baseline 16
  Swollen joint count assessed with ultrasound, final: 16, 0
[1]; Patient 6, 36 weeks, baseline 24
  Tender joint, final: 24, 0
[1]; Patient 6, 36 weeks, baseline 60
  Patient own assessment (0-100), final: 60, 7
[1]; Patient 6, 36 weeks, baseline 90
  Physician assessment (0-100), final: 90, 7
[1]; Patient 6, by 3.5 weeks of degarelix, large effusion before (FIG. 4)
  Effusion over the right wrist on ultrasound: much smaller
[1]; Patient 6, treatment duration 36 weeks
  ACR % Response: 80%
Patient with Lupus; 7 Nov. 2014, 15 Sep. 2014 0.78
  Total urinary protein: 0.17 g/L
Patient with Lupus; 7 Nov. 2014, 15 Sep. 2014 11
  LH (<12): <0.3
Patient with Lupus; 7 Nov. 2014, 15 Sep. 2014 14
  FSH (<12): <0.1
Patient with Lupus; 7 Nov. 2014, 15 Sep. 2014 >32 out of range
  ANA (<1): 26↑
Patient with Lupus; 14 Oct. 2014, 15 Sep. 2014 0.78
  Total urinary protein: 0.15 ^2 g/L
Patient with Lupus; 14 Oct. 2014, 15 Sep. 2014 14
  FSH (<12): <0.1
Patient with Lupus; 14 Oct. 2014, 15 Sep. 2014 >32 out of range
  ANA (<1): 28↑
Patient with Lupus; 23 Sep. 2014, 15 Sep. 2014 0.78
  Total urinary protein: 0.75 ↑ g/L
Patient with Lupus; 23 Sep. 2014, 15 Sep. 2014 11
  LH (<12): <0.3
Patient with Lupus; 23 Sep. 2014, 15 Sep. 2014 (loading dose day) 14
  FSH (<12): 2
Patient with Lupus; 25 Sep. 2014, 15 Sep. 2014 >32 out of range
  ANA (<1): 31 ↑
Patient with Lupus; by 1 month of treatment, balance improved
  Parasthesias: no longer has parasthesias
Patient with Lupus; by 1 month, still in remission at 2 months
  Proteinuria: complete remission
Patient with Lupus; by 8 weeks, before 3.5 hours
  Morning pain: 0 h
Patient with Lupus; by day 5, before 3.5 hours
  Morning pain: 1.5 h
Patient with Lupus; by day 10, before 3.5 hours
  Morning pain: 0 h
Patient with Lupus; by day 10 of treatment
  Ulcers on toes and hands: several ulcers had healed
Patient with Lupus; week 8 (FIG. 8)
  Foot erythema: decreased
[2]; Patient 1, October 2014, 6.6 mmol/L in September 2014
  Fasting glucose: 6.3 mmol/L
[2]; Patient 1, after degarelix, 3 of 5 risk factors before
  Criteria for metabolic syndrome: no longer fulfills the criteria
[2]; Patient 1, at 8 months, baseline 6.4%
  HbA1c (4.3-6.1%): 5.7%
[2]; Patient 1, at 8 months
  Blood pressure: 118/78
[2]; Patient 1, by 2 weeks, baseline 6.4%
  HbA1c (4.3-6.1%): 6.1%
[2]; Patient 1, by 6 months
  Blood pressure: 120/71
[2]; Patient 4, by 1 month, baseline 6.9%
  HbA1c (4.3-6.1%): 6.6%
[2]; Patient 4, by 2 months, baseline 6.9%
  HbA1c (4.3-6.1%): 6.4%
[2]; Patient 4, by 3 months
  Fasting glucose (4.0-6.0): 6.6 mmol/L
[2]; Patient 4, by 4 months, normalised
  Fasting glucose (4.0-6.0): 6.0 mmol/L
[2]; Patient 4, by 4 months, baseline 6.9%
  HbA1c (4.3-6.1%): 6.2%
[2]; Patient 4, by 12 months, normalized, baseline 6.9%
  HbA1c (4.3-6.1%): 5.9%
[2]; at 4 weeks
  HDL (1.0-2.7 mmol/L): 1.19 mmol/L
[2]; by 1 week
  HDL (1.0-2.7 mmol/L): 0.73 mmol/L
[2]; by 2 weeks
  HDL (1.0-2.7 mmol/L): 0.75 mmol/L
[2]; by 3 weeks, normalized
  HDL (1.0-2.7 mmol/L): 1.13 mmol/L
